Measurements taken from ChEMBL document CHEMBL3774368, “1,2,4-Triazolyl octahydropyrrolo[2,3-b]pyrroles: A new series of potent and selective dopamine D3 receptor antagonists” (Bioorg Med Chem, 2016).
Converted amounts (≈) assume the structure as drawn. The source made the active and inactive calls. The calls are words filed in the database; no cut-off is given here.

What was measured:
[1] = Solubility of compound; type: physicochemical
Cytochrome P450 2D6 = Cytochrome P450 2D6 (Homo sapiens, UniProt P10635); test: Inhibition of recombinant human CYP2D6 expressed in baculosomes preincubated for 10 mins followed by cofactor addition measured every minute for 10 mins using 4-methylaminomethyl-7-methoxycoumarin as substrate by CYPEX assay
in vitro [2] = conditions: human, liver microsomes, CLH
Cytochrome P450 1A2 = target: T1, Cytochrome P450 1A2 (Homo sapiens, UniProt P05177); test: Inhibition of recombinant human CYP1A2 expressed in baculosomes preincubated for 10 mins followed by cofactor addition measured every minute for 10 mins using ethoxyresorufin as substrate by CYPEX assay
T1 sequence (P05177 whole entry): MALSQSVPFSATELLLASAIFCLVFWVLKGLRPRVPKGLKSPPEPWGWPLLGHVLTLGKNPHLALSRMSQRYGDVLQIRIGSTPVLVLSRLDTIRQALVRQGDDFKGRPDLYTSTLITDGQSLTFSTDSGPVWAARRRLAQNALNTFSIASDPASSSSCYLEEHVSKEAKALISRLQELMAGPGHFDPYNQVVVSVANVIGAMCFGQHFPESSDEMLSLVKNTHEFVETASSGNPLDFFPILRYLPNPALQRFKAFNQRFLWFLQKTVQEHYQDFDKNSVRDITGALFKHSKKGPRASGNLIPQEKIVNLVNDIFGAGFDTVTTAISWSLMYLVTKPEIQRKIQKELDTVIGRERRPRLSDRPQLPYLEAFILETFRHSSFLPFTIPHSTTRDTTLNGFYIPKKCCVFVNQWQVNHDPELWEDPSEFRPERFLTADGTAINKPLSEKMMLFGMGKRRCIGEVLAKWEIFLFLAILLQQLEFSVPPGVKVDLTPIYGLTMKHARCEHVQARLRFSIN

[3] = target: Muscarinic acetylcholine receptor M3 (Homo sapiens, UniProt P20309); test: Antagonist activity at recombinant human muscarinic M3 receptor expressed in CHO-K1 cells assessed as inhibition of acetylcholine induced calcium mobilization preincubated for 10 mins followed by acetylcholine addition measured after 1 hr by fluo-4 AM dye-based FLIPR assay; type: functional, cell-based
in vitro [4] = conditions: rat, liver microsomes, CLH
Cytochrome P450 3A4 [5] = target: T2, Cytochrome P450 3A4 (Homo sapiens, UniProt P08684); test: Inhibition of recombinant human CYP3A4 expressed in baculosomes preincubated for 10 mins followed by cofactor addition measured every minute for 10 mins using 7-benzyloxyquinoline as substrate by CYPEX assay
[6] = Fraction unbound in Sprague-Dawley rat blood
[7] = target: T3, Muscarinic acetylcholine receptor M1 (Homo sapiens, UniProt P11229); test: Antagonist activity at recombinant human muscarinic M1 receptor expressed in CHO-K1 cells assessed as inhibition of acetylcholine induced calcium mobilization preincubated for 10 mins followed by acetylcholine addition measured after 1 hr by fluo-4 AM dye-based FLIPR assay; type: functional, cell-based
T3 sequence (P11229 whole entry): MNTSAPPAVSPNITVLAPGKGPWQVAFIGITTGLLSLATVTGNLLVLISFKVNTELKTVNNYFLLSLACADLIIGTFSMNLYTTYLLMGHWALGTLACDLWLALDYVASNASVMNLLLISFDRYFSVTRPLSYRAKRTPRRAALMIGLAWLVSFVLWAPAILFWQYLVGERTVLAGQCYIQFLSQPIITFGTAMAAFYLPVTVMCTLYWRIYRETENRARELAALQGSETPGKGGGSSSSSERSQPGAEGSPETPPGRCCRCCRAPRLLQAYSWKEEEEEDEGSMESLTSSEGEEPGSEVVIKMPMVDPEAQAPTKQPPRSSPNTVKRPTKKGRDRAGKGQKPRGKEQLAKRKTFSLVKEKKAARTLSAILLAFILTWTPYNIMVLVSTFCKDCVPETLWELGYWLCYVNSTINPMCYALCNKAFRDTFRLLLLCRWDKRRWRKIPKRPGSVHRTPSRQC

Cytochrome P450 2C9 = Cytochrome P450 2C9 (Homo sapiens, UniProt P11712); test: Inhibition of recombinant human CYP2C9 expressed in baculosomes preincubated for 10 mins followed by cofactor addition measured every minute for 10 mins using 7-methoxy-4-trifluoromethylcoumarin-3-acetic acid as substrate by CYPEX assay
[8] = Fraction absorbed in portal vein cannulated Sprague-Dawley rat model; conditions: in vivo
[9] = Half life in portal vein cannulated Sprague-Dawley rat model; conditions: in vivo
D(3) dopamine receptor [10] = target: T4, D(3) dopamine receptor (Homo sapiens, UniProt P35462); test: Displacement of [3H]-spiperone from human dopamine D3 receptor expressed in CHO-K1 cell membranes after 90 mins by liquid scintillation counter method
[11] = Clearance in portal vein cannulated Sprague-Dawley rat blood; conditions: whole blood
Cytochrome P450 3A4 [12] = target: T2, Cytochrome P450 3A4; test: Inhibition of recombinant human CYP3A4 expressed in baculosomes preincubated for 10 mins followed by cofactor addition measured every minute for 10 mins using diethoxyflourescein as substrate by CYPEX assay
Cytochrome P450 2C19 = Cytochrome P450 2C19 (Homo sapiens, UniProt P33261); test: Inhibition of recombinant human CYP2C19 expressed in baculosomes preincubated for 10 mins followed by cofactor addition measured every minute for 10 mins using 3-butyryl-7-methoxycoumarin as substrate by CYPEX assay
[13] = Permeability across apical to basolateral side in human Caco2 cells; conditions: for Papp A→B: Caco-2, permeability
in vivo [14] = conditions: Sprague-Dawley, rat, po
Description: Oral bioavailability in portal vein cannulated Sprague-Dawley rat model

[15] = Volume of distribution at steady state in portal vein cannulated Sprague-Dawley rat model; conditions: in vivo
[16] = Fraction unbound in Sprague-Dawley rat brain
D(2) dopamine receptor [17] = target: T5, D(2) dopamine receptor (Homo sapiens, UniProt P14416); test: Antagonist activity at human dopamine D2L receptor expressed in CHO cells assessed as inhibition of dopamine-mediated Ca+2 stimulation pretreated for 10 mins followed by addition of dopamine by fluo-4 AM dye-based FLIPR assay; type: cell-based
[18] = Efflux ratio of apparent permeability across basolateral to apical side in human Caco2 cells; type: ADME, cell-based; conditions: Caco-2
D(2) dopamine receptor [19] = target: T5, D(2) dopamine receptor; test: Displacement of [3H]-spiperone from human dopamine D2 receptor expressed in CHO-K1 cell membranes after 120 mins by liquid scintillation counter method
[20] = target: Voltage-gated inwardly rectifying potassium channel KCNH2 (Homo sapiens, UniProt Q12809); test: Inhibition of human ERG tail current expressed in HEK293 cells after 5 mins by patch clamp assay
[21] = Apparent permeability across apical to basolateral side in human Caco2 cells; type: ADME, cell-based; conditions: Caco-2
D(3) dopamine receptor [22] = target: T4, D(3) dopamine receptor; test: Antagonist activity at human dopamine D3 receptor expressed in CHO-K1 cell membranes after 90 mins by [35S]GTP-gamma-S binding assay in presence of 3 nM quinelorane
in vivo [23] = conditions: Sprague-Dawley, rat
Description: Hepatic extraction ratio in portal vein cannulated Sprague-Dawley rat model

in vitro [24] = conditions: human, Caco-2
Description: Efflux ratio of permeability across basolateral to apical side in human Caco2 cells

D(4) dopamine receptor = target: T6, D(4) dopamine receptor (Homo sapiens, UniProt P21917); test: (§1) Binding affinity to dopamine D4 receptor (unknown origin)
T6 sequence (P21917 whole entry): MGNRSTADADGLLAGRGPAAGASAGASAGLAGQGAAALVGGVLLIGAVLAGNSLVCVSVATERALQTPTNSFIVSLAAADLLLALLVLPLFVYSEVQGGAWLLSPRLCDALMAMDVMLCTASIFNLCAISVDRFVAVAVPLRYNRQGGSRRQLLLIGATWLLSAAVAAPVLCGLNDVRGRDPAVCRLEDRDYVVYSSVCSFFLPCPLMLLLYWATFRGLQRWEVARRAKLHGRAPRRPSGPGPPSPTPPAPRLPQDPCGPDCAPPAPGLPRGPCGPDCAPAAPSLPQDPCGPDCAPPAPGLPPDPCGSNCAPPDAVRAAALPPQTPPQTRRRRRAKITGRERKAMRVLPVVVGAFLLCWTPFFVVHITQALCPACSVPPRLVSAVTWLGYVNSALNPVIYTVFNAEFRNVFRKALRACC

Liver microsome [25] = conditions: rat, microsomes, 0.5 µM
Liver microsome [26] = conditions: human, microsomes, 0.5 µM
[27] = target: T7, D(4) dopamine receptor (Homo sapiens) (UniProt P21917); test: as §1
T7 sequence (whole entry): T6 sequence (P21917 whole entry)

[28] = target: D(1A) dopamine receptor (Homo sapiens) (UniProt P21728); test: Binding affinity to dopamine D1 receptor (unknown origin)
Chain of D(1A) dopamine receptor (Homo sapiens) (P21728 whole entry): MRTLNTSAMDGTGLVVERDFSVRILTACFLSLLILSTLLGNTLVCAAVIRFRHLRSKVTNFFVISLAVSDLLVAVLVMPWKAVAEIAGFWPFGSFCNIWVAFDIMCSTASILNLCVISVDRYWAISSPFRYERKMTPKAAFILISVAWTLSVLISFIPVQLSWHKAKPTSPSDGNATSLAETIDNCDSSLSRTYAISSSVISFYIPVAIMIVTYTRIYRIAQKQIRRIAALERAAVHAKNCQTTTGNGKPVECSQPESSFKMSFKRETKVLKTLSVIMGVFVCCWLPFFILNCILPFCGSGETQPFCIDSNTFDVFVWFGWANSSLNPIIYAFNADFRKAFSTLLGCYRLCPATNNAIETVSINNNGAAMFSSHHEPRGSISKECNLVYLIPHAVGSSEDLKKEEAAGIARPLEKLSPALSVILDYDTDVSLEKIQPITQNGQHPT

Chain of Cytochrome P450 2D6 (P10635 whole entry): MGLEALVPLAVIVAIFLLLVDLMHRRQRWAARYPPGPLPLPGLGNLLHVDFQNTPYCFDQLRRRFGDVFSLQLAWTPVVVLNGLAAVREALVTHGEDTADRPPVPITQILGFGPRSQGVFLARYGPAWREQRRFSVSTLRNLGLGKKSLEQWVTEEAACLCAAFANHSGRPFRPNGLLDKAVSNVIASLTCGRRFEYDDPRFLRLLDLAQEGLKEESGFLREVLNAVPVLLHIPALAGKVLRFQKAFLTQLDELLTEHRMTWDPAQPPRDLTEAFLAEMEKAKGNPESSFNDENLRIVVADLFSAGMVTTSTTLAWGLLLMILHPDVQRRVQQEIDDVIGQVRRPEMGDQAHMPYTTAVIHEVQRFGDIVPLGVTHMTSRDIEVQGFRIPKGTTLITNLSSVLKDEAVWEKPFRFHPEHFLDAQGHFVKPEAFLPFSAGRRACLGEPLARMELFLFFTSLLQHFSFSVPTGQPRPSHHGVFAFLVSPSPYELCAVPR
Chain of Muscarinic acetylcholine receptor M3 (P20309 whole entry): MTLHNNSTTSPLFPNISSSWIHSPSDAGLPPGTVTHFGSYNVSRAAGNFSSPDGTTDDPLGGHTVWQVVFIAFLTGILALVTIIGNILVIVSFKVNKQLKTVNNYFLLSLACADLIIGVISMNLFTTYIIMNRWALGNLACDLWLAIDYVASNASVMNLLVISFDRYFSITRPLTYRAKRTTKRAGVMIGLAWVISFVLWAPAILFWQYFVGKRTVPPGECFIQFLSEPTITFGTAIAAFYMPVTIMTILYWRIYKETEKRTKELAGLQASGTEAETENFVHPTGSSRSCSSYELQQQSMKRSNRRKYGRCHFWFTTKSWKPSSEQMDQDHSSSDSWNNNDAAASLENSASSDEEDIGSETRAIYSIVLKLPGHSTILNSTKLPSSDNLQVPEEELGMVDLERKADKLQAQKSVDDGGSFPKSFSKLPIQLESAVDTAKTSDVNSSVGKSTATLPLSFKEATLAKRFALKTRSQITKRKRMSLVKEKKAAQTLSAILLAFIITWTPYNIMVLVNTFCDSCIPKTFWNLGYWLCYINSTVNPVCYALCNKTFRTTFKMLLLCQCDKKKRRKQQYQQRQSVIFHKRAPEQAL
Chain of Voltage-gated inwardly rectifying potassium channel KCNH2 (Q12809 whole entry): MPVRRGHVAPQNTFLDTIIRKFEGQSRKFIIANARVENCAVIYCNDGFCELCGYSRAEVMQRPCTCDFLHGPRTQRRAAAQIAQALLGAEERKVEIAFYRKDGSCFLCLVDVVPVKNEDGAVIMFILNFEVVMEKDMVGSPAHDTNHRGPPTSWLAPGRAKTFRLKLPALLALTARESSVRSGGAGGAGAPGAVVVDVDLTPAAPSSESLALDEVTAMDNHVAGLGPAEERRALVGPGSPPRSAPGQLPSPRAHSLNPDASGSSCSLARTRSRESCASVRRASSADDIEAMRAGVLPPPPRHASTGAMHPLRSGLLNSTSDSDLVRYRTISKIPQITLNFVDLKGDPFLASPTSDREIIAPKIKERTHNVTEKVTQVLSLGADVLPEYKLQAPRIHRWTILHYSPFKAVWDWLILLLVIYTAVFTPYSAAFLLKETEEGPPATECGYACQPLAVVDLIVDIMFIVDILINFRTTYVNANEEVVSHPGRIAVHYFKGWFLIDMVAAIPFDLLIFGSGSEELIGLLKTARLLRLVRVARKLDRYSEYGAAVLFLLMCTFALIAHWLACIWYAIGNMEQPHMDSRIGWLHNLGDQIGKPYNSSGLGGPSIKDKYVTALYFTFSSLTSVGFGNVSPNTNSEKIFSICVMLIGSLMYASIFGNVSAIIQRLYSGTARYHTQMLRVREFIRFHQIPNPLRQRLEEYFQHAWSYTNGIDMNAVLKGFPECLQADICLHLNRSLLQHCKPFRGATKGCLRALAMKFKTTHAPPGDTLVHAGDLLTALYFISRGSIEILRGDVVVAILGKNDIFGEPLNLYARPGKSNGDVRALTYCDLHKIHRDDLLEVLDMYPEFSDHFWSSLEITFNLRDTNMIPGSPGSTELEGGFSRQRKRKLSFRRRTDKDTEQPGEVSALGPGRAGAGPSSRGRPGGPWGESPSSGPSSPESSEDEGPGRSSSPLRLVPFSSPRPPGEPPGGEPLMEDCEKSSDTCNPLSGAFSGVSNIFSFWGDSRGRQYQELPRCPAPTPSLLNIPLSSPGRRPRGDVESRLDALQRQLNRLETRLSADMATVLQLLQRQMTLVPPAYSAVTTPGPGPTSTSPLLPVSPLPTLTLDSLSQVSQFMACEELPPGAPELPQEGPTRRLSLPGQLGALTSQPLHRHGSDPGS
Chain of Cytochrome P450 2C9 (P11712 whole entry): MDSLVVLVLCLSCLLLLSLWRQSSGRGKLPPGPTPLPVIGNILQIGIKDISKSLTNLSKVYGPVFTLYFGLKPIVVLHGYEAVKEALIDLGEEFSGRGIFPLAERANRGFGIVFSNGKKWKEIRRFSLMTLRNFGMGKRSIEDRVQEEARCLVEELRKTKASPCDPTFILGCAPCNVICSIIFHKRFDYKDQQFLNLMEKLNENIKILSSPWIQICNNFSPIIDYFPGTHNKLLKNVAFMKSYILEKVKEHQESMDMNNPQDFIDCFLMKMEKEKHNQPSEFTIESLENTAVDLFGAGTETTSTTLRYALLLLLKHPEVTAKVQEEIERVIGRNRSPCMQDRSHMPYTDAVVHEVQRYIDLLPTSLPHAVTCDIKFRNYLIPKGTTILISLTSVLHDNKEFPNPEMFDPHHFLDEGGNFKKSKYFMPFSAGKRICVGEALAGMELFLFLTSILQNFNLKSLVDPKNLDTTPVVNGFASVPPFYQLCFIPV
Chain of Cytochrome P450 2C19 (P33261 whole entry): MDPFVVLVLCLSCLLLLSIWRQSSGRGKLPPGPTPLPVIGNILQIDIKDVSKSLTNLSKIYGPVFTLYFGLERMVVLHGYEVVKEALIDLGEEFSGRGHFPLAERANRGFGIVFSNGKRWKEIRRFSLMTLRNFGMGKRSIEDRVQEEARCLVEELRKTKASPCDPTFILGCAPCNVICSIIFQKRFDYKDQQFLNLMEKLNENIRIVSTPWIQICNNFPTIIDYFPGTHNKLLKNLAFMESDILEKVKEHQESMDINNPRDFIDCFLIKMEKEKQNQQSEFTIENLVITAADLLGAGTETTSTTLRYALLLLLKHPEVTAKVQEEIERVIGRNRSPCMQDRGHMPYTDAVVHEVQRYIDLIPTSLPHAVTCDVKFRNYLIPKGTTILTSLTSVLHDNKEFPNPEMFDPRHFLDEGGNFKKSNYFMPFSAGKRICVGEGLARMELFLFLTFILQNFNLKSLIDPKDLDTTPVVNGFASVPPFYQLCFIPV
T5 sequence (P14416 whole entry): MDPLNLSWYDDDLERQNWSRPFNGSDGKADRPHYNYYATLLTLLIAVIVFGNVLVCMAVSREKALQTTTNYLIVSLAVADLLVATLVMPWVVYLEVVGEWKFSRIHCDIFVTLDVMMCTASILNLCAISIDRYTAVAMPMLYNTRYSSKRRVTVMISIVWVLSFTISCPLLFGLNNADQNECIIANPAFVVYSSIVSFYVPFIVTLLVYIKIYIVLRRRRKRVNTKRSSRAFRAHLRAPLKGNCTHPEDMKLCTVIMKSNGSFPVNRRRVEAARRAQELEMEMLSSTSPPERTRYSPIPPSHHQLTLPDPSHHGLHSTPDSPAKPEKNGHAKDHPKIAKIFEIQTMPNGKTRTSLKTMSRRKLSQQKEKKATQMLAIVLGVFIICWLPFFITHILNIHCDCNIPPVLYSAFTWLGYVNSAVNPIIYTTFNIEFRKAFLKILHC
T4 sequence (P35462 whole entry): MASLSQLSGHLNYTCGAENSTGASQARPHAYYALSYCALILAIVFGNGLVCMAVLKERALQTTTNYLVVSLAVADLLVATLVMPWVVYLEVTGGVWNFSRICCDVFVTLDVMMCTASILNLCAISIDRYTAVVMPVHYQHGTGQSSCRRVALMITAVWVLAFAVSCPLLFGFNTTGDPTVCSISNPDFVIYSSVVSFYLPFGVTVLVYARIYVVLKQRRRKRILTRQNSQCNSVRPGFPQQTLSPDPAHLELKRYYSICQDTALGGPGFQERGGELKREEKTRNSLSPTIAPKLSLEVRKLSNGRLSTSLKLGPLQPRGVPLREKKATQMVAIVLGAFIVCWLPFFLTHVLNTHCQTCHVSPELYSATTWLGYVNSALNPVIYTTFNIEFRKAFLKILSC
T2 sequence (P08684 whole entry): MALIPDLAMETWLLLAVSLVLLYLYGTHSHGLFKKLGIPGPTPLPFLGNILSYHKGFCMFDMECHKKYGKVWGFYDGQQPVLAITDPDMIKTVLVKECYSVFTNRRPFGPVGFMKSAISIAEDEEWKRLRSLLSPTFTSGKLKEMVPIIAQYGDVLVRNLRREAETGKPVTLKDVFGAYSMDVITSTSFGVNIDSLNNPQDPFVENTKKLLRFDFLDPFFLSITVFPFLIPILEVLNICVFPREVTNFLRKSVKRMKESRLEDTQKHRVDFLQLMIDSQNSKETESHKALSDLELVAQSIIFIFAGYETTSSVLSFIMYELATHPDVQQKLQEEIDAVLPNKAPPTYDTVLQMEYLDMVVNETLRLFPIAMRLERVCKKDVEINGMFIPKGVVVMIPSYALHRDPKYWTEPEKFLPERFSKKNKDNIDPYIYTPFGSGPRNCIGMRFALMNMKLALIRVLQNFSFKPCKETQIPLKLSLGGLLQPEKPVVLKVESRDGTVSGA

SMILES	IC50 (Cytochrome P450 2D6)	microsomal CLint at 0.5 µM (in vitro [2])	IC50 (Cytochrome P450 1A2)	Ki [3]	microsomal CLint at 0.5 µM (in vitro [4])	IC50 (Cytochrome P450 3A4 [5])	fraction unbound [6]	Ki [7]	IC50 (Cytochrome P450 2C9)	Fa [8]	half-life [9]	Ki (D(3) dopamine receptor [10])	clearance [11]	IC50 (Cytochrome P450 3A4 [12])	IC50 (Cytochrome P450 2C19)	bioavailability (in vivo [14])	Vd [15]	fraction unbound [16]	Ki (D(2) dopamine receptor [19])	IC50 [20]	also measured
Cn1c(SCCCN2CC3CCN(c4ccccc4)C3C2)nnc1C1CCOCC1 (stereo in doubt; 62a) [listing 1 of 2 here]	> 17 µM	26 µL/min/mg	> 17 µM	1450 nM	272 µL/min/mg	> 17 µM	0.31	1020 nM	> 17 µM	5.5%	18 min	6.31 nM	20 mL/min/kg	> 17 µM	> 17 µM	< 1%	0.44 L/kg	0.33	–	–	solubility [1]: > 2000 µg/mL; permeability ([13]; Caco-2): permeable
Cc1ncoc1-c1nnc(SCCCN2CC3CCN(c4ccc(C(F)(F)F)cc4F)C3C2)n1C (stereo in doubt; 8b)	> 3 µM	177 µL/min/mg	> 3 µM	245 nM	43 µL/min/mg	> 3 µM	0.0025	110 nM	> 3 µM	79%	90 min	1.26 nM	20 mL/min/kg	> 3 µM	> 3 µM	73%	1.1 L/kg	0.014	63.1 nM	398 nM	Ki (D(2) dopamine receptor [17]): 50.1 nM; efflux ratio [18]: 0.55; Papp A→B [21]: 5.5 ×10⁻⁶ cm/s; Ki (D(3) dopamine receptor [22]): 1.58 nM; hepatic extraction ratio (in vivo [23]): 0.07
Cn1c(SCCCN2CC3CCN(c4ccc(C(F)(F)F)cc4)C3C2)nnc1-c1cc[nH]c(=O)c1 (stereo in doubt; 55b)	> 20 µM	33 µL/min/mg	> 20 µM	1100 nM	47 µL/min/mg	> 20 µM	0.044	1740 nM	> 20 µM	5%	126 min	7.94 nM	37 mL/min/kg	> 20 µM	> 20 µM	3%	4.2 L/kg	0.022	631 nM	2510 nM	solubility [1]: 200 µg/mL (≈ 396 µM); efflux ratio (in vitro [24]): 3.8; Ki (D(4) dopamine receptor): 15.8 µM; Papp A→B [13]: 4.2 ×10⁻⁶ cm/s; hepatic extraction ratio (in vivo [23]): 0.4
Cn1c(SCCCN2CC3CCN(c4ccc(C(F)(F)F)cc4)C3C2)nnc1-c1ccc(=O)n(C)c1 (stereo in doubt; 57b) [listing 1 of 2 here]	–	–	–	479 nM	–	–	–	380 nM	–	–	–	5.01 nM	–	–	–	–	–	–	–	–	CLH (Liver microsome [25]): 30 µL/min; Papp A→B [13]: 5.3 ×10⁻⁶ cm/s; CLH (Liver microsome [26]): 111 µL/min
Cn1c(SCCCN2CC3CCN(c4ccc(C(F)(F)F)cc4)C3C2)nnc1-c1ccc(=O)n(C)c1 (stereo in doubt; 57b) [listing 2 of 2 here]	–	–	–	–	–	–	–	–	–	–	–	–	–	–	–	–	–	–	–	–	Activity [27]: inactive; Activity [28]: inactive
Cc1ncoc1-c1nnc(SCCCN2CC3CCN(c4ccccc4)C3C2)n1C (stereo in doubt; 6b)	> 1 µM	88 µL/min/mg	> 1 µM	1260 nM	364 µL/min/mg	> 1 µM	–	1000 nM	> 1 µM	50%	18 min	–	80.1 mL/min/kg	> 1 µM	> 1 µM	–	2.2 L/kg	–	251 nM	1260 nM	Ki (D(2) dopamine receptor [17]): 158 nM
Cn1c(SCCCN2CC3CCN(c4ccccc4)C3C2)nnc1C1CCOCC1 (stereo in doubt; 62a) [listing 2 of 2 here]	–	–	–	–	–	–	–	–	–	–	–	–	–	–	–	–	–	–	–	–	Activity [27]: inactive; Activity [28]: inactive
